How the values were obtained:
Type in all cases: functional
Staphylococcus aureus [1] = assay: Antibacterial activity against Staphylococcus aureus SG511 assessed as zone of inhibition after 24 hrs by disk diffusion method
Pseudomonas aeruginosa [2] = assay: Antibacterial activity against Pseudomonas aeruginosa BG137 B7 assessed as zone of inhibition after 24 hrs by disk diffusion method
Mycolicibacterium vaccae = assay: Antibacterial activity against Mycobacterium vaccae IMET 10670 assessed as zone of inhibition after 24 hrs by disk diffusion method
Pseudomonas aeruginosa [3] = assay: Antibacterial activity against Pseudomonas aeruginosa K799/61 assessed as zone of inhibition after 24 hrs by disk diffusion method
Enterococcus faecalis = assay: Antibacterial activity against vancomycin-resistant Enterococcus faecalis 1528 R10 assessed as zone of inhibition after 24 hrs by disk diffusion method
Escherichia coli = assay: Antibacterial activity against Escherichia coli SG458 assessed as zone of inhibition after 24 hrs by disk diffusion method
Staphylococcus aureus [4] = assay: Antibacterial activity against methicillin-resistant Staphylococcus aureus 134/94 R9 assessed as zone of inhibition after 24 hrs by disk diffusion method
Bacillus subtilis = assay: Antibacterial activity against Bacillus subtilis ATCC 6633 assessed as zone of inhibition after 24 hrs by disk diffusion method
[5] = tested on: Sporobolomyces salmonicolor; assay: Antifungal activity against Sporidiobolus salmonicolor SBUG 549 assessed as zone of inhibition after 24 hrs by disk diffusion method
Penicillium chrysogenum = assay: Antifungal activity against Penicillium chrysogenum JP36 assessed as zone of inhibition after 24 hrs by disk diffusion method

Structure (SMILES)	inhibition zone (IZ) (Staphylococcus aureus [1])	inhibition zone (IZ) (Pseudomonas aeruginosa [2])	inhibition zone (IZ) (Mycolicibacterium vaccae)	inhibition zone (IZ) (Pseudomonas aeruginosa [3])	inhibition zone (IZ) (Enterococcus faecalis)	inhibition zone (IZ) (Escherichia coli)	inhibition zone (IZ) (Staphylococcus aureus [4])	inhibition zone (IZ) (Bacillus subtilis)	inhibition zone (IZ) [5]	inhibition zone (IZ) (Penicillium chrysogenum)
C[C@H]1C(=O)CC[C@@]2(C)CCCC[C@]12O	0 mm	10 mm	0 mm	10 mm	10 mm	0 mm	0 mm	10 mm	0 mm	0 mm
O=C(N[C@H](CO)[C@H](O)c1ccc([N+](=O)[O-])cc1)C(Cl)Cl [CHLORAMPHENICOL]	17 mm	24 mm	20 mm	24 mm	17 mm	23 mm	0 mm	29 mm		
C[C@H]1CCC[C@@]2(C)CC[C@@H](O)C[C@]12O	0 mm	10 mm	0 mm	10 mm	0 mm	10 mm	0 mm	10 mm	0 mm	0 mm
C[C@H]1CCC[C@@]2(C)CC[C@@H](C(C)(C)O)C[C@]12O	12 mm	11 mm	14 mm	11 mm	11 mm	10 mm	11 mm	12 mm	12 mm	12 mm
C[C@@H]1[C@H](O)[C@@H](C)/C=C/C=C/C=C/C=C/C=C/C=C/C=C/[C@H](O[C@@H]2O[C@H](C)[C@@H](O)[C@H](N)[C@@H]2O)C[C@@H]2O[C@](O)(C[C@@H](O)C[C@@H](O)[C@H](O)CC[C@@H](O)C[C@@H](O)CC(=O)O[C@H]1C)C[C@H](O)[C@H]2C(=O)O [AMPHOTERICIN B]			13 mm						13 mm	17 mm
